Source: the PolyMetriX glass transition set
± gives the standard deviation of the reports.

Row | glass transition temperature | SMILES
1 | 17.00 °C | *OC(=O)OCCOCCOCCOC(=O)OC1COC2C(*)COC12 (repeat unit)
2 | -66.00 °C | *CCOCCOC(=O)CCCCCCC(=O)O* (repeat unit)
3 | 232.00 °C | *Oc1ccc(C(c2ccc(OC(*)=O)cc2)C2C3CCC(C3)C2C)cc1 (repeat unit)
4 | 38.00 °C | *CC(*)C(=O)OCCCCCC(=O)Oc1ccc(-c2ccc(C#N)cc2)cc1 (repeat unit)
5 | 303.50 °C | *c1ccc(Oc2ccc(-n3c(=O)c4c(Oc5ccc(OC)cc5)c5c(=O)n(*)c(=O)c5c(Oc5ccc(OC)cc5)c4c3=O)cc2)cc1 (repeat unit)
6 | 130.00 °C | *CC(*)(C)C(=O)OCC1COC(c2ccccc2)O1 (repeat unit)
7 | 45.00 °C | *O[Si](*)(C)CCCCCCOc1ccc(C(=O)Oc2ccc(C#N)cc2C)cc1 (repeat unit)
8 | 44.00 °C | *CCOC(=O)NCCCCCCCCCNC(=O)O* (repeat unit)
9 | 140.00 °C | *Oc1cccc(NC(=O)CCCCCCC(=O)Nc2ccc(*)cc2)c1 (repeat unit)
10 | 117.00 °C | *Oc1ccc(Oc2ccc(/C=N/c3ccc(/N=C/c4ccc(*)cc4)cc3)cc2)cc1 (repeat unit)
11 | 40.00 °C | *CCCCCCCCCCCCCCNC(=O)NCCCCCCCCCCNC(=O)N* (repeat unit)
12 | 78.80 °C | *c1ccc2c(c1)C(CCCCCC)(CCCCCC)c1cc(-c3cc(CCCCCC)c(*)cc3CCCCCC)ccc1-2 (repeat unit)
13 | -26.00 °C | *CC(C)(COC(=O)NCCCCCCNC(=O)O*)C(=O)O (repeat unit)
14 | 231.70 °C | *Nc1ccc(NC(=O)c2cc(-c3ccc(C(=O)OCC)c(C(*)=O)c3)ccc2C(=O)OCC)cc1 (repeat unit)
15 | 325.00 °C | *c1ccc(OC(=O)c2cccc(C(=O)Oc3ccc(C4(*)NC(=O)c5ccccc54)cc3)c2)cc1 (repeat unit)
16 | 299.00 °C | *C(=O)Nc1cccc2c(NC(=O)c3ccc4c(c3)C(=O)N(c3ccc(Oc5cccc6c(N7C(=O)c8ccc(*)cc8C7=O)cccc56)cc3)C4=O)cccc12 (repeat unit)
17 | 105.00 °C | *Oc1ccc(Oc2ccc(/C=N/CCCC/N=C/c3ccc(*)cc3)cc2)cc1 (repeat unit)
18 | 263.00 °C | *C(=O)Nc1ccc(Oc2cccc(NC(=O)c3ccc4c(c3)C(=O)N(c3ccc(Oc5ccc6ccc(Oc7ccc(N8C(=O)c9ccc(*)cc9C8=O)cc7)cc6c5)cc3)C4=O)c2)cc1 (repeat unit)

Row | glass transition temperature | SMILES
19 | 243.00 °C | *c1c(C)cc(Cc2cc(C)c(N3C(=O)c4cccc(Oc5c(C)cc(Cc6cc(C)c(Oc7cccc8c7C(=O)N(*)C8=O)c(C)c6)cc5C)c4C3=O)c(C)c2)cc1C (repeat unit)
20 | -27.00 °C | *CC#CCOC(=O)CCCCCCCCCCC(=O)O* (repeat unit)
21 | 240.00 °C | *c1ccc(Cc2ccc(N3C(=O)c4ccc(Oc5ccc(C6(c7ccc(Oc8ccc9c(c8)C(=O)N(*)C9=O)cc7)CCCCCCCCCCC6)cc5)cc4C3=O)cc2)cc1 (repeat unit)
22 | 150 ± 44 °C | *CC(*)n1c2ccccc2c2ccccc21 (repeat unit) [Poly(N-vinyl carbazole)]
23 | 2.00 °C | */C=C/C(C)C(*)C(=O)OCCCCCCN(C)c1ccc(N(C)C)cc1 (repeat unit)
24 | 235.00 °C | *c1ccc(Oc2ccc(C(=O)c3ccc(C(=O)c4ccc(Oc5ccc(-c6cc(*)[nH]n6)cc5)cc4)cc3)cc2)cc1 (repeat unit)
25 | 220.00 °C | *Oc1ccc(Oc2ccc(C(=O)Nc3ccc(Oc4ccc(-c5ccc(Oc6ccc(NC(=O)c7ccc(*)cc7)cc6)cc5)cc4)cc3)cc2)cc1C (repeat unit)
26 | 90.00 °C | *CCCCCCOc1c(OC)cc(/C=C/c2ccc(/C=C/c3cc(OC)c(O*)c(OC)c3)cc2)cc1OC (repeat unit)
27 | 303.50 °C | *Nc1ccc(C(C)(C)c2ccc(NC(=O)c3cc(NC(=O)c4ccccc4)cc(C(*)=O)c3)cc2)cc1 (repeat unit)
28 | 56.50 °C | *CCCCCCCCCCCCCNC(=O)CCCCCCCCCCCC(=O)N* (repeat unit)
29 | 121.50 °C | *CCCCCCOc1ccc(-c2cc(-c3ccc(-c4ccccc4)cc3)c(-c3ccc(NC(=O)c4ccc(C(=O)Nc5ccc(-c6c(-c7ccc(-c8ccccc8)cc7)cc(-c7ccc(O*)cc7)cc6-c6ccc(-c7ccccc7)cc6)cc5)cc4)cc3)c(-c3ccc(-c4ccccc4)cc3)c2)cc1 (repeat unit)
30 | 312.00 °C | *Cc1ccc2oc(=O)c(C(=O)Nc3ccc(Oc4ccc(NC(=O)c5cc6cc(*)ccc6oc5=O)cc4)cc3)cc2c1 (repeat unit)
31 | 85.00 °C | *CC(*)(C)C(=O)OCCCCCCOc1ccc(C(=O)Oc2ccc(C(=O)/C=C/c3c(C)c4ccccc4n3CCCC)cc2)cc1 (repeat unit)
32 | 287.00 °C | *Nc1ccc(Cc2ccc(NC(=O)c3cc(C(*)=O)cc(N4C(=O)C=CC4=O)c3)cc2)cc1 (repeat unit)
33 | 233.00 °C | *C(=O)c1ccc(Oc2ccc(-c3ccc(Oc4ccc(C(=O)c5ccc6c(c5)C(=O)N(c5ccc(Oc7ccc(N8C(=O)c9ccc(*)cc9C8=O)cc7)cc5)C6=O)cc4)cc3)cc2)cc1 (repeat unit)
34 | 269.00 °C | *c1ccc(C(c2ccccc2)c2ccc(N3C(=O)c4ccc(Oc5ccc6c(c5)C(=O)N(*)C6=O)cc4C3=O)cc2)cc1 (repeat unit)
35 | 53.60 °C | *CCCCCCOC(=O)C(CCCCCOc1ccc(/N=N/c2ccncc2)cc1)C(=O)OCCCCCCOc1ccc(-c2ccc(O*)cc2)cc1 (repeat unit)
36 | 250.00 °C | *C(=O)Nc1ccc(-c2ccc(NC(=O)N3CC(C)N(*)CC3C)cc2)cc1 (repeat unit)

The remaining lines, values behind:

Row | SMILES | glass transition temperature
37 | *c1ccc(-c2cc(C(C)(C)C)c(Oc3ccc(N4C(=O)c5ccc(S(=O)(=O)c6ccc7c(c6)C(=O)N(*)C7=O)cc5C4=O)cc3C(F)(F)F)c(C(C)(C)C)c2)cc1 (repeat unit) | 365.50 °C
38 | *CC(*)(C)C(=O)NC(=O)OCCOc1ccc(S(=O)(=O)c2ccc(OCCO)cc2)cc1 (repeat unit) | 131.00 °C
39 | *CC(*)(C)C(=O)OCC (repeat unit) [Poly(1-(Diethylamino)ethyl methacrylate)] | 20 ± 27 °C
40 | *O[Si](C)(C)O[Si](C)(C)O[Si](C)(C)O[Si](C)(C)OC(C)CCCCC(*)C (repeat unit) | -98.00 °C
41 | *CCCC(=O)N* (repeat unit) | 62.80 °C
42 | *Oc1ccc(OC(=O)c2ccc(-c3ccc(C(*)=O)cc3)cc2-c2ccccc2)cc1-c1ccccc1 (repeat unit) | 148.00 °C
43 | *C/C=C/COC(=O)C(Cc1ccccc1)NC(=O)CCCCC(=O)NC(Cc1ccccc1)C(=O)O* (repeat unit) | 61.00 °C
44 | *Oc1c(C)cc(*)cc1C(C)CCC (repeat unit) | 100.00 °C
45 | *Oc1ccc(OC(=O)c2ccc(C(*)=O)cc2Oc2ccc(C(C)(C)c3ccccc3)cc2)cc1 (repeat unit) | 93.00 °C
46 | *c1ccc2c(c1)C(=O)N(c1ccc(Oc3ccc(N4C(=O)c5ccc(C(*)O[Si](C)(C)C)cc5C4=O)cc3)cc1)C2=O (repeat unit) | 210.00 °C
47 | *CCN(*)C(=O)c1cccc(F)c1 (repeat unit) | 97.00 °C
48 | *c1ccc(*)[nH]1 (repeat unit) [Poly(pyrrole)] | 86.42 ± 23 °C
49 | *CC(CC)(CC)CS* (repeat unit) | -36.2 °C
50 | *Nc1cc([N+](=O)[O-])c(NC(=O)CCCCCCCCC(*)=O)cc1/C=C/c1ccc(N(C)C)cc1 (repeat unit) | 159.00 °C
51 | *CC(*)O[N+](=O)[O-] (repeat unit) | 37.50 °C
52 | *CCCCOC(=O)c1ccc(C(C)(C)c2ccc(C(=O)O*)cc2)cc1 (repeat unit) | 44.00 °C
53 | *CC(*)CC1CCCC1 (repeat unit) | 60.00 °C

Row | SMILES | glass transition temperature
54 | *Oc1ccc(NC(=O)c2cc(C(=O)Nc3ccc(Oc4ccc(C(c5ccc(*)cc5)(C(F)(F)F)C(F)(F)F)cc4)cc3)cc([N+](=O)[O-])c2)cc1 (repeat unit) | 232.00 °C
55 | *C1C=C(CCCCCC)C(*)S1 (repeat unit) | 58.1 °C
56 | *CCOc1ccc(/C=C2\CC/C(=C\c3ccc(OCCOP(=O)(O*)OCC)c(OC)c3)C2=O)cc1OC (repeat unit) | 80.00 °C
57 | *C(C)C(*)C(=O)OCCC (repeat unit) | 116.00 °C
58 | *CC(*)C(=O)OCCCCCCCC (repeat unit) [Poly(n-octyl acrylate) ] | -65 ± 0.6 °C
59 | *CC(*)(CCCCCCCC)C(=O)OC (repeat unit) | 34.00 °C
60 | *c1cc(CCCCCCCC)c(*)s1 (repeat unit) | -13.10 ± 5.5 °C
61 | *c1ccc(Oc2cccc(Oc3ccc(N4C(=O)c5cccc(Oc6ccc(S(=O)(=O)c7ccc(Oc8cccc9c8C(=O)N(*)C9=O)cc7)cc6)c5C4=O)cc3)c2)cc1 (repeat unit) | 230.00 °C
62 | *CC(CSC(C)C)O* (repeat unit) | -44.00 °C
63 | *CCN(*)C(=O)c1ccccc1F (repeat unit) | 109.00 °C
64 | *CC(CSCC)O* (repeat unit) | -57.00 °C
65 | *Nc1cc(NC(=O)Nc2ccc(NC(*)=O)cc2)cc(C(=O)Nc2cccc3c2C(=O)c2ccccc2C3=O)c1 (repeat unit) | 190.00 °C
66 | *CCCCCCCCCCCC(c1ccc(O)cc1)C(*)c1ccc(O)cc1C (repeat unit) | 4.00 °C
67 | *CCOCCOc1ccc(NC(=O)c2cccc(C(=O)Nc3ccc(O*)cc3)c2)cc1 (repeat unit) | 155.00 °C
68 | *O[Si](*)(C)CCCCCCCCCCC(=O)OCCC(F)(F)C(F)(F)C(F)(F)C(F)(F)C(F)(F)C(F)(F)C(F)(F)C(F)(F)F (repeat unit) | -78.00 °C
69 | *Oc1ccc(CC(NC(=O)CCc2ccc(OC(=O)COCCOCC(*)=O)cc2)C(=O)OC(C)C)cc1 (repeat unit) | 58.00 °C
70 | *CC(OC)C(C)(C(=O)OC)C(*)(C)C(=O)OC (repeat unit) | 134.00 °C
